In patent publication US20080280862A1, “Methods, compositions, and kits for the treatment of pain” (priority 2007, published 2008):

Assays:
[1] = system: acetic acid-induced pain model in mice; assay: Acetic acid pain model, writhes; assay type: in vivo, ICR mice
Description: The acetic acid is a reliable fast model for noxious/visceral pain usually used for screening potential drug candidates for their analgesic activity. The effects of test article combinations on pain generation are assayed using the acetic acid-induced pain model in mice. Adult male ICR mice are administered study drugs intraperitoneally (vehicle, TCA, steroid or TCA/Steroid test article combinations) once daily for 2 days (day −2 and day −1) and 30 minutes prior to the acetic acid injection on day 0 (time=0). […] To elicit a pain response, dilute acetic acid (10 ml/kg of 0.6% solution) is injected intraperitoneally into the abdomen. The animal is placed in an observation chamber, and 5 minutes after acetic acid administration, the number of writhes is counted and recorded over a five minute period by a blinded observer. A writhe is considered as a contraction of the abdominal muscles accompanied by an elongation of the body and extension of the hind limb. Results are expressed as number of writhes.

[2] = system: carrageenan-induced pain model in rats; assay: Carrageenan pain model, mechanical allodynia by Von Frey filaments; assay type: in vivo, Sprague-Dawley rats; details: for Mean AUC ± SEM: AUC from 20 minutes through 120 minutes following carrageenan injection
Description: The carrageenan model is a fast, reliable model used to assess the ability of analgesics to block inflammatory pain. The analgesic effects of test article combinations on pain generation are assayed using the carrageenan-induced pain model in rats. Adult male Sprague-Dawley rats are administered study drugs intraperitoneally (vehicle, tricyclic compound (TCA), steroid or TCA/Steroid test article combinations) once daily for 2 days (day −2 and day −1) and 30 minutes prior to the carrageenan injection on day 0 (time=0). For the carrageenan injection, animals are lightly anesthetized and 0.1 ml of 2% carrageenan is injected into the plantar surface of the right hind paw. The positive control diclofenac at a dose of 25 mg/kg is administered intraperitoneally immediately before the carrageenan injection. Paw volumes (right and left) are measured using a plathysmometer before drug administration on day −2 and serve as a baseline measurement. The paw volumes are measured again two hours post carrageenan injection. The degree of mechanical allodynia is measured by a blinded observer using Von Frey filaments applied to the plantar surface of the hind paws in an increasing numerical order. Each filament increases the force applied on the paw. The filaments are applied until animal paw withdrawal is achieved. This procedure is carried out before drug administration (day −2), on day −1 and on day 0 at time=0, 20, 40, 60, 80 and 120 minutes post-carrageenan. The force (expressed in grams) required for paw withdrawal after carrageenan injection is subtracted from the force required for paw withdrawal before carrageenan injection. Results are expressed as mean change from baseline across five timepoints post carrageenan injection in Table 4.
For a synergy calculation, experimental data from the carrageenan study are fitted to a median-effect model and used to calculate the parameters' median-effect dose (Dm), slope (m), correlation coefficient (r), combination index (CI) and dose-reduction index (DRI). In addition, the probability of pain inhibition occurring after single-component (nortriptyline) versus the combination drug treatments are calculated from the negative change from baseline data using a Bayesian sensitivity analysis. The likelihood of pain inhibition is characterized for nortriptyline administered alone (1 mg/kg or 3 mg/kg) versus the fixed-dose combination treatments [prednisolone (0.3 mg/kg):nortriptyline (1 mg/kg) or prednisolone (1 mg/kg):nortriptyline (3 mg/kg)] each evaluated at 60 and 80 minutes for analgesic effect.
In another example, the effects of test article combinations on pain inhibition were assayed using the carrageenan model in rodents. Desipramine was tested alone and in combination at 0.3, 1, and 3 mg/kg and prednisolone was tested similarly at 0.3, 1 and 3 mg/kg IP.

C[C@]12C=CC(=O)C=C1CC[C@@H]1[C@@H]2[C@@H](O)C[C@@]2(C)[C@H]1CC[C@]2(O)C(=O)CO [Prednisolone]
Mean # of writhes per 5 minutes ± SEM ([1]; 1 mg/kg ip): 8.00 ± 1.70 | Mean # of writhes per 5 minutes ± SEM ([1]; 5 mg/kg ip): 14.43 ± 2.07 | Mean # of writhes per 5 minutes ± SEM ([1]; 10 mg/kg ip): 12.29 ± 3.83 | Mean # of writhes per 5 minutes ± SEM ([1]; 35 mg/kg ip): 11.29 ± 5.22 | Mean AUC ± SEM ([2]; 0.3 mg/Kg): 2302 ± 634.46 | Mean AUC ± SEM ([2]; 1 mg/Kg): 1583 ± 574.15 | Mean change from baseline ± SEM ([2]; Experiment One, 3 mg/kg, 20 minutes): 1.10 ± 9.30 g | Mean change from baseline ± SEM ([2]; Experiment One, 3 mg/kg, 40 minutes): -52.01 ± 12.52 g | Mean change from baseline ± SEM ([2]; Experiment One, 3 mg/kg, 60 minutes): -101.90 ± 15.02 g | Mean change from baseline ± SEM ([2]; Experiment One, 3 mg/kg, 80 minutes): -159.70 ± 16.77 g | Mean change from baseline ± SEM ([2]; Experiment One, 3 mg/kg, 120 minutes): -212.90 ± 20.82 g | Mean change from baseline ± SEM ([2]; Experiment One, 10 mg/kg, 20 minutes): 5.60 ± 6.14 g | Mean change from baseline ± SEM ([2]; Experiment One, 10 mg/kg, 40 minutes): -44.30 ± 11.47 g | Mean change from baseline ± SEM ([2]; Experiment One, 10 mg/kg, 60 minutes): -97.50 ± 14.33 g | Mean change from baseline ± SEM ([2]; Experiment One, 10 mg/kg, 80 minutes): -147.30 ± 16.72 g | Mean change from baseline ± SEM ([2]; Experiment One, 10 mg/kg, 120 minutes): -193.70 ± 18.07 g | Mean change from baseline ± SEM ([2]; Experiment One, 20 mg/kg, 20 minutes): -29.40 ± 5.10 g | Mean change from baseline ± SEM ([2]; Experiment One, 20 mg/kg, 40 minutes): -82.60 ± 5.59 g | Mean change from baseline ± SEM ([2]; Experiment One, 20 mg/kg, 60 minutes): -135.80 ± 7.21 g | Mean change from baseline ± SEM ([2]; Experiment One, 20 mg/kg, 80 minutes): -189.00 ± 8.41 g | Mean change from baseline ± SEM ([2]; Experiment One, 20 mg/kg, 120 minutes): -246.20 ± 12.02 g | Mean change from baseline ± SEM ([2]; Experiment One, 35 mg/kg, 20 minutes): -13.60 ± 7.52 g | Mean change from baseline ± SEM ([2]; Experiment One, 35 mg/kg, 40 minutes): -73.60 ± 7.52 g | Mean change from baseline ± SEM ([2]; Experiment One, 35 mg/kg, 60 minutes): -130.20 ± 7.26 g | Mean change from baseline ± SEM ([2]; Experiment One, 35 mg/kg, 80 minutes): -176.60 ± 10.69 g | Mean change from baseline ± SEM ([2]; Experiment One, 35 mg/kg, 120 minutes): -216.20 ± 11.39 g | Mean change from baseline ± SEM ([2]; Experiment Two, first set of rows, 0.3 mg/kg, 20 minutes): 4.79 ± 7.92 g | Mean change from baseline ± SEM ([2]; Experiment Two, first set of rows, 0.3 mg/kg, 40 minutes): 16.77 ± 5.63 g | Mean change from baseline ± SEM ([2]; Experiment Two, first set of rows, 0.3 mg/kg, 60 minutes): 19.7 ± 5.68 g | Mean change from baseline ± SEM ([2]; Experiment Two, first set of rows, 0.3 mg/kg, 80 minutes): 24.31 ± 6.40 g | Mean change from baseline ± SEM ([2]; Experiment Two, first set of rows, 0.3 mg/kg, 120 minutes): 25.57 ± 6.79 g | Mean change from baseline ± SEM ([2]; Experiment Two, first set of rows, 1 mg/kg, 20 minutes): 27.60 ± 5.74 g | Mean change from baseline ± SEM ([2]; Experiment Two, first set of rows, 1 mg/kg, 40 minutes): 28.64 ± 5.42 g | Mean change from baseline ± SEM ([2]; Experiment Two, first set of rows, 1 mg/kg, 60 minutes): 25.54 ± 6.04 g | Mean change from baseline ± SEM ([2]; Experiment Two, first set of rows, 1 mg/kg, 80 minutes): 23.77 ± 6.08 g | Mean change from baseline ± SEM ([2]; Experiment Two, first set of rows, 1 mg/kg, 120 minutes): 35.14 ± 5.26 g | Mean change from baseline ± SEM ([2]; Experiment Two, second set of rows, 0.3 mg/kg, 20 minutes): 0.00 ± 7.42 g | Mean change from baseline ± SEM ([2]; Experiment Two, second set of rows, 0.3 mg/kg, 40 minutes): -4.86 ± 4.86 g | Mean change from baseline ± SEM ([2]; Experiment Two, second set of rows, 0.3 mg/kg, 60 minutes): 0.00 ± 0.00 g | Mean change from baseline ± SEM ([2]; Experiment Two, second set of rows, 0.3 mg/kg, 80 minutes): 4.86 ± 4.86 g | Mean change from baseline ± SEM ([2]; Experiment Two, second set of rows, 0.3 mg/kg, 120 minutes): 31.43 ± 5.54 g | Mean change from baseline ± SEM ([2]; Experiment Two, second set of rows, 1 mg/kg, 20 minutes): 9.71 ± 6.27 g | Mean change from baseline ± SEM ([2]; Experiment Two, second set of rows, 1 mg/kg, 40 minutes): 0.00 ± 10.49 g | Mean change from baseline ± SEM ([2]; Experiment Two, second set of rows, 1 mg/kg, 60 minutes): 16.14 ± 7.73 g | Mean change from baseline ± SEM ([2]; Experiment Two, second set of rows, 1 mg/kg, 80 minutes): 24.14 ± 7.56 g | Mean change from baseline ± SEM ([2]; Experiment Two, second set of rows, 1 mg/kg, 120 minutes): 12.86 ± 13.38 g | decrease of median-effect dose (Dm) after co-administration compared to the monotherapy ([2]; median-effect model, prednisolone/nortriptyline 1:3 fixed ratios): 10 fold
